From US11642350B2, “Agent for preventing myopia, treating myopia, and/or preventing myopia progression comprising tiotropium as active ingredient” (priority 2017, dated 2023)
Where a name gives a salt, the structure may show the parent alone.

Key:
Myopia Mice Model = assay: Suppression of axial length elongation in myopia mice model (spectacle lens-induced, eyedrop); format: in vivo, mice (C57BL/6J); settings: 7 μL topically once a day, post-natal day 33 to 61, -15D lens, mouse
Procedure: Test 2. Test About Suppression of Axial Length Elongation in Myopia Mice Model
Tiotropium bromide hydrate and glycerin were dissolved in water for injection to prepare 0.0001% (w/v) and 0.01% (w/v) tiotropium ophthalmic solutions without adjusting pH.
In a similar way, atropine sulfate hydrate and glycerin were dissolved in water for injection to prepare 0.1% (w/v) atropine ophthalmic solution without adjusting pH. The vehicle (control) was isotonic water which was prepared with water for injection and glycerin.
Spectacle lens-induced myopia model was established by placing −15D hard lens on the right eye of mice (C57BL/6J), which was served as the experimental eye, at post-natal days 18. Briefly, a −15D lens was glued to an annulus (with 8 mm base curve) of Velcro. This mating piece was then attached to the Velcro that had been previously glued to the hair around the right experimental eye using a cyanoacrylate. An air gap of 1.5 mm existed between the back part of the lens and the anterior surface of the cornea.
Ocular biometry such as axial length measurement was done using in vivo Optical Low Coherence Interferometry (OLCI-AcMaster). The axial length was measured at post-natal days 33 and 61.
The ratio for suppressing the axial length elongation with each example was calculated by the following equation: […]
Tiotropium (at 0.0001% or 0.01%) or atropine (at 0.1%) was administered once a day post-natal day 33 until day 61 in the spectacle lens-induced myopia model. 7 μL of each drug was administered topically to the right eye in dim red light at the each day.

Myopia Chick Model = assay: Suppression of axial length elongation in myopia chick model (goggle-induced, intravitreal administration); format: in vivo, chicks (white leghorns); settings: 20 μL intravitreally on day 0, 2 and 4, axial length measured on day 6
Procedure: Test 1. Test About Suppression of Axial Length Elongation in Myopia Chick Model
Tiotropium bromide hydrate was dissolved in saline to prepare 0.1 mM and 10 mM tiotropium solutions.
And, atropine sulfate hydrate was dissolved in saline to prepare 100 mM atropine solution as a reference example.
As a control, saline was used.
A test tube having a diameter of 18 mm was cut off at the level of 10 mm from the bottom, and the cutting circle of the cut-off bottom part was bonded to a flat rubber packing with an adhesive agent to prepare a lens (goggle). 7-day-old chicks (white leghorns) were obtained, and the prepared goggle was attached to the right eye of each chick with an adhesive agent to induce myopia to the chicks. The left eye thereof was its control.
To each of the tiotropium administration groups, 20 μL of each prepared tiotropium solution was intravitreally administered on the day that the goggle was fixed (on day 0), on day 2, and on day 4. […]
On day 6 from the myopia induction, the axial length of right and left eyeballs was measured with a ultrasound axial length measurement ECHOSCAN US-500 (NIDEK CO., LTD.) (A-scan). The difference of axial lengths and the suppression rate of the axial length elongation were calculated by the following formulae.

[1] = test system: pupil diameter of the mice; assay: Evaluation of mydriatic action (pupil diameter after a single eyedrop); format: in vivo; settings: mouse; for Pupil diameter before administration (mm): before the eyedrop (baseline); for Maximum pupil diameter (mm) / Measurement time of maximum pupil diameter: single dose 5 μL to both eyes; for Maximum pupil diameter (mm): longest average among 1, 2, 4 and 24 h
Procedure: Test 3. Evaluation of Mydriatic Action
Tiotropium bromide hydrate and glycerin were dissolved in water for injection to prepare 0.01% (w/v), 0.1% (w/v), and 2% (w/v) tiotropium ophthalmic solutions without adjusting pH.
In a similar way, atropine sulfate hydrate and glycerin were dissolved in water for injection to prepare 0.01% (w/v), and 0.1% (w/v) atropine ophthalmic solutions without adjusting pH.
A single dose (5 μL) of each prepared ophthalmic solution was administered to both eyes of mice (6 eyes of 3 mice per each ophthalmic solution). Before the administration (eyedrop), and 1, 2, 4 and 24 hours after the administration, each pupil diameter of the mice was measured. The measured pupil diameters of the mice at each measurement time per each test sample were averaged to obtain each average value as each average pupil diameter. Among each average pupil diameter at each measurement time, the longest diameter was defined as the maximum pupil diameter.

[2] = 0.01% (w/v) ophthalmic solution group
[3] = 0.01% (w/v) ophthalmic solution
[4] = 0.1% (w/v) ophthalmic solution group
[5] = 0.0001% (w/v) ophthalmic solution

Row | SMILES | Mean (μm) change in the axial length (Myopia Mice Model; 0.1% (w/v) ophthalmic solution) [μm] | Suppression rate (%) of the axial length elongation (Myopia Mice Model; 0.1% (w/v) ophthalmic solution) [%] | Suppression rate (%) of the axial length elongation (Myopia Chick Model; 100 mM atropine solution (reference example)) [%] | Pupil diameter before administration (mm) [1, 2] [mm] | Maximum pupil diameter (mm) [1, 3] [mm] | Measurement time of maximum pupil diameter [1, 3] [h] | Pupil diameter before administration (mm) [1, 4] [mm] | Maximum pupil diameter (mm) ([1]; 0.1% (w/v) ophthalmic solution) | Measurement time of maximum pupil diameter ([1]; 0.1% (w/v) ophthalmic solution) [h] | Mean (μm) change in the axial length (Myopia Mice Model; [5]) [μm] | Suppression rate (%) of the axial length elongation (Myopia Mice Model; [5]) [%] | Mean (μm) change in the axial length (Myopia Mice Model; [3]) [μm] | Suppression rate (%) of the axial length elongation (Myopia Mice Model; [3]) [%] | Suppression rate (%) of the axial length elongation (Myopia Chick Model; 0.1 mM solution) [%] | Pupil diameter before administration (mm) ([1]; 2% (w/v) ophthalmic solution group) | Maximum pupil diameter (mm) ([1]; 2% (w/v) ophthalmic solution) | Measurement time of maximum pupil diameter ([1]; 2% (w/v) ophthalmic solution) [h]
1 | CN1[C@@H]2CC[C@H]1C[C@@H](OC(=O)C(CO)c1ccccc1)C2 (some centres unmarked) [atropine, atropine sulfate hydrate] | 111.61 | 29.50 | 83 | 0.42 | 1.43 | 1 | 0.40 | 1.96 | 2 |  |  |  |  |  |  |  | 
2 | C[N+]1(C)C2CC(OC(=O)C(O)(c3cccs3)c3cccs3)CC1C1OC12 (stereo not drawn) [tiotropium, (1α,2β,4β,5α,7β)-7-[(hydroxydi-2-thienylacetyl)oxy]-9,9-dimethyl-3-oxa-9-azoniatricyclo[3.3.1.0^2,4]nonane bromide monohydrate] |  |  |  | 0.36 | 1.24 | 4 | 0.43 | 2.23 | 2 | 135.84 | 14.20 | 112.95 | 28.66 | 45 | 0.36 | 2.15 | 1
